In patent US20090257979A1, “Novel Inhibitors of Hepatitis C Virus Replication” (INTERMUNE, INC., priority 2008, published 2009):
pEC50: −log10 of the molar value.

Assays:
HCV Replicon = HCV Replicon inhibition; type: cell-based; details: Hepatitis C virus
NS5B polymerase protein = target: T1, NS5B polymerase protein (Hepatitis C virus genotype 1a, UniProt P27958); test: biochemical; details: pre-incubated 37° C. 30 minutes; RdRp reaction 90 minutes at 37° C.; read-out: HCV NS5B inhibition EC50
T1 construct: pre-incubated with the RNA template and NS5B polymerase protein; Replizyme
Protocol: The compounds were tested in the Replizyme HCV heterotemplate radioactive RNA-dependent RNA-polymerase (RdRp) assay. The test compounds were pre-incubated with the RNA template and NS5B polymerase protein at 37° C. for 30 minutes. The RdRp reaction was initiated with the addition of the NTPs to the buffer-NS5B-compound mix, and was allowed to proceed for 90 minutes at 37° C. Control reactions included: no enzyme, 5% DMSO (test compound solvent), no compound/solvent, Cordycepin-TP and HCV-796 (IC50 values used as a reference inhibition). Radioactive products were collected by applying the stopped reaction to DE-81 paper, air dried prior to washing with buffer comprising NaH2PO4 and sodium pyrophosphate to remove unincorporated ^32P-GTP in the NTP mix, and rinsed with dH2O followed by 100% ethanol. The DE-81 paper was air dried, squares cut out and placed in scintillation tubes for counting.

T1 sequence (P27958 2421-3011): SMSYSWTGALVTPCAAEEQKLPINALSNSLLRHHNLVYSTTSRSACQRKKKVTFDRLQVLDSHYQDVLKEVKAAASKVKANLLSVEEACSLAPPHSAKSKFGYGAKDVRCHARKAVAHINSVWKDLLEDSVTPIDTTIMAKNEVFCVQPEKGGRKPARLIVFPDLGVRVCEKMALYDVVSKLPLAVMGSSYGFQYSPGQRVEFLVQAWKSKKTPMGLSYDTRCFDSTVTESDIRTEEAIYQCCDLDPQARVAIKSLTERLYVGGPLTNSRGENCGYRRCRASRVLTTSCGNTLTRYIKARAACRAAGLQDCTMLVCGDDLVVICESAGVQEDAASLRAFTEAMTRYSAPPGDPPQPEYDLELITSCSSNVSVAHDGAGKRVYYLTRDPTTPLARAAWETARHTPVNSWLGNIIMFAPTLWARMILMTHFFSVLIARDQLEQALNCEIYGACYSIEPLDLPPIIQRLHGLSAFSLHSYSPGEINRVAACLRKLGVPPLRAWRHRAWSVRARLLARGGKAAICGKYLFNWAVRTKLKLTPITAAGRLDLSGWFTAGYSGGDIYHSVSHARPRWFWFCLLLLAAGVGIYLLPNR

COc1ccc(Cc2c(=O)c(C3=NS(=O)(=O)c4cc(NS(C)(=O)=O)ccc4N3)c(O)n3ccccc23)cc1 [Compound 245] was tested, and the pEC50 (HCV Replicon) was greater than 7.00 and the pEC50 (NS5B polymerase protein) was 6.00 to 7.00.

Work on Cc1cccc2c(CCC(C)C)c(=O)c(C3=NS(=O)(=O)c4cc(NS(C)(=O)=O)ccc4N3)c(O)n12 [Compound 249] yielded a pEC50 (HCV Replicon) greater than 7.00 and a pEC50 (NS5B polymerase protein) of 6.00 to 7.00.

With CC(C)CCc1c(=O)c(C2=NS(=O)(=O)c3cc(NS(C)(=O)=O)ccc3N2)c(O)n2cc(F)ccc12 [Compound 250] the pEC50 (HCV Replicon) was greater than 7.00 and the pEC50 (NS5B polymerase protein) was greater than 7.00.

Cc1ccc2c(CCC(C)C)c(=O)c(C3=NS(=O)(=O)c4cc(NS(C)(=O)=O)ccc4N3)c(O)n2c1 [Compound 252] was tested, and the pEC50 (HCV Replicon) was greater than 7.00 and the pEC50 (NS5B polymerase protein) was greater than 7.00.

CS(=O)(=O)Nc1ccc2c(c1)S(=O)(=O)N=C(c1c(O)n3ccccc3c(CCC3CC3)c1=O)N2 [Compound 253] was tested, and the pEC50 (HCV Replicon) was 6.00 to 7.00 and the pEC50 (NS5B polymerase protein) was 5.00 to 6.00.
